Measurements from the supplement of paper PMC13380429.

Tests used:
Conditions in all cases: 72 h
HepG2 [1] = experiment: cell viability relative to DMSO; higher = less toxic
U2OS [2] = experiment: as above
Vero E6 [3] = experiment: as above
Calu-3 [4] = experiment: as above
Caco-2 [5] = experiment: as above
HepG2 [6] = experiment: relative viability EC50 (midpoint between 100% and the lowest measured viability); higher = less toxic
U2OS [7] = experiment: as above
Vero E6 [8] = experiment: as above
Calu-3 [9] = experiment: as above
Caco-2 [10] = experiment: as above
HepG2 [11] = experiment: drug sensitivity score (DSS) for viability; higher = more toxic; extreme values may be limits of the assay
U2OS [12] = experiment: as above
Vero E6 [13] = experiment: as above
Calu-3 [14] = experiment: as above
Caco-2 [15] = experiment: as above

Compound | cell viability (HepG2 [1]; 1 nM) | cell viability (HepG2 [1]; 10 nM) | cell viability (HepG2 [1]; 100 nM) | cell viability (HepG2 [1]; 1000 nM) | cell viability (HepG2 [1]; 10000 nM) | cell viability (U2OS [2]; 1 nM) | cell viability (U2OS [2]; 10 nM) | cell viability (U2OS [2]; 100 nM) | cell viability (U2OS [2]; 1000 nM) | cell viability (U2OS [2]; 10000 nM) | cell viability (Vero E6 [3]; 1 nM) | cell viability (Vero E6 [3]; 10 nM) | cell viability (Vero E6 [3]; 100 nM) | cell viability (Vero E6 [3]; 1000 nM) | cell viability (Vero E6 [3]; 10000 nM) | cell viability (Calu-3 [4]; 1 nM) | cell viability (Calu-3 [4]; 10 nM) | cell viability (Calu-3 [4]; 100 nM) | cell viability (Calu-3 [4]; 1000 nM) | cell viability (Calu-3 [4]; 10000 nM) | cell viability (Caco-2 [5]; 1 nM) | cell viability (Caco-2 [5]; 10 nM) | cell viability (Caco-2 [5]; 100 nM) | cell viability (Caco-2 [5]; 1000 nM) | cell viability (Caco-2 [5]; 10000 nM) | relative viability EC50 (HepG2 [6]) | relative viability EC50 (U2OS [7]) | relative viability EC50 (Vero E6 [8]) | relative viability EC50 (Calu-3 [9]) | relative viability EC50 (Caco-2 [10]) | drug sensitivity score (HepG2 [11]) | drug sensitivity score (U2OS [12]) | drug sensitivity score (Vero E6 [13]) | drug sensitivity score (Calu-3 [14]) | drug sensitivity score (Caco-2 [15])
CC(C)(C)CCN1C[C@@H]2[C@@H](CNC(=O)c3cc(Cl)cc(Cl)c3)[C@@H]2C1 [ML218] | 95.2% | 108% | 96.3% | 96.9% | 92.7% | 99.7% | 97.9% | 96.8% | 102% | 93.1% | 101% | 101% | 103% | 100% | 91.8% | 108% | 109% | 104% | 99.6% | 90.7% | 104% | 97.4% | 97.4% | 92.8% | 88.6% | > 10 µM | > 10 µM | > 10 µM | > 10 µM | > 10 µM | 0 | 0 | 0 | 0 | 0
c1cnc(NCc2ccc(CNc3ncccn3)cc2)nc1 [MSX-122] | 90.6% | 103% | 102% | 92.3% | 101% | 94.7% | 103% | 106% | 99.4% | 99.8% | 101% | 98.6% | 100% | 103% | 99.1% | 104% | 100% | 109% | 99.4% | 113% | 92.9% | 100% | 107% | 112% | 99.2% | > 10 µM | > 10 µM | > 10 µM | > 10 µM | > 10 µM | 0 | 0 | 0 | 0 | 0
CC(C)(O)CS(=O)(=O)Nc1ccc2c(c1)CCN(C(=O)COc1cccnc1)C2 [Nampt-IN-1] | 98.2% | 100% | 50.2% | 20.1% | 16.2% | 108% | 104% | 6.2% | -0.1% | 0.1% | 105% | 103% | 104% | 3.3% | 2.4% | 93.2% | 88.1% | 50.8% | 6.2% | 5.7% | 100% | 99.8% | 84.5% | 4% | 3.7% | 0.0823 µM | 0.0392 µM | 0.348 µM | 0.0828 µM | 0.193 µM | 21.2 | 29.3 | 17.1 | 22.9 | 20
CC(=O)OC[C@H](N)C(=O)O [O-acetyl-L-serine] | 115% | 103% | 106% | 110% | 95.2% | 104% | 104% | 99.3% | 105% | 98.9% | 114% | 89.8% | 99.2% | 103% | 104% | 111% | 97.6% | 105% | 92.5% | 97.1% | 104% | 109% | 90.3% | 106% | 94.9% | > 10 µM | > 10 µM | > 10 µM | > 10 µM | > 10 µM | 0 | 0 | 0 | 0 | 0
O=S(=O)(O)c1ccc(-c2c3nc(c(-c4ccc(S(=O)(=O)O)cc4)c4ccc([nH]4)c(-c4ccc(S(=O)(=O)O)cc4)c4nc(c(-c5ccc(S(=O)(=O)O)cc5)c5ccc2[nH]5)C=C4)C=C3)cc1 [TPPS4] | 100% | 102% | 104% | 107% | 80.5% | 101% | 94.2% | 105% | 105% | 91.6% | 110% | 102% | 93.6% | 95.7% | 81.9% | 94.2% | 93.1% | 109% | 99% | 90.1% | 107% | 87.2% | 91.4% | 96.4% | 101% | > 10 µM | > 10 µM | > 10 µM | > 10 µM | > 10 µM | 0.3 | 0 | 0.7 | 0 | 0
COc1ccc(CCN(C)CCc2ccc(OC)c(OC)c2)cc1OC [YS-035] | 101% | 103% | 105% | 96.3% | 110% | 99.3% | 106% | 96.7% | 99.9% | 96.6% | 100% | 99.9% | 98.3% | 97.8% | 101% | 98.2% | 106% | 93.9% | 95.5% | 102% | 95.6% | 100% | 90.6% | 90.4% | 97.4% | > 10 µM | > 10 µM | > 10 µM | > 10 µM | > 10 µM | 0 | 0 | 0 | 0 | 0
CCN(C(C)=O)c1cccc(-c2ccnc3c(C#N)cnn23)c1 [ZALEPLON] | 90.5% | 95.6% | 91% | 105% | 89.3% | 105% | 104% | 102% | 103% | 96% | 97.5% | 99.2% | 99.3% | 101% | 95% | 93.9% | 96.7% | 96.7% | 86.1% | 90.7% | 96.6% | 102% | 100% | 104% | 96.4% | > 10 µM | > 10 µM | > 10 µM | > 10 µM | > 10 µM | 0 | 0 | 0 | 0 | 0
CC(=O)Oc1ccccc1C(=O)Oc1ccccc1C(=O)O [acetylsalicylsalicylic-acid] | 100% | 106% | 100% | 108% | 92.4% | 96.1% | 96.8% | 103% | 104% | 106% | 101% | 101% | 102% | 95.9% | 99.9% | 95.3% | 78.8% | 99.3% | 97% | 91.9% | 103% | 96.1% | 101% | 101% | 103% | > 10 µM | > 10 µM | > 10 µM | > 10 µM | > 10 µM | 0 | 0 | 0 | 0 | 0
CSCC[C@H](NC(=O)[C@H](CC(C)C)NC(=O)[C@@H](Cc1c[nH]c2ccccc12)NC(=O)[C@H](Cc1ccccc1)N(C)C(=O)[C@@H](Cc1c[nH]c2ccccc12)NC(=O)[C@@H](N)CCCNC(=N)N)C(N)=O [antagonist-g] | 104% | 98.1% | 103% | 84.8% | 105% | 99.9% | 93.1% | 97.7% | 97% | 97.4% | 96.2% | 97% | 102% | 85.6% | 96.3% | 105% | 91% | 98.8% | 89.3% | 111% | 93.8% | 89.7% | 96.3% | 75.6% | 122% | > 10 µM | > 10 µM | > 10 µM | > 10 µM | > 10 µM | 0 | 0 | 0 | 0 | 0
CCCC1(CCC)CCC2(CCN(CCCN(CC)CC)C2)CC1 [atiprimod] | 91.1% | 94.8% | 93.2% | 83.3% | 0% | 101% | 105% | 95.8% | 96.1% | 14.6% | 97.9% | 98.7% | 101% | 92.1% | 16.9% | 103% | 103% | 101% | 86.9% | 0.7% | 99.2% | 94.7% | 98.4% | 94.9% | 20.7% | 1.89 µM | 2.82 µM | 2.38 µM | 2.1 µM | 2.66 µM | 8.3 | 5.3 | 5.9 | 7.7 | 5.1
NC(=O)[C@@H]1CC[C@@H]2CN1C(=O)N2OS(=O)(=O)O [avibactam] | 114% | 109% | 90.9% | 98.4% | 97.8% | 97.2% | 94.6% | 101% | 96.9% | 98.7% | 95% | 96.5% | 97.6% | 97.1% | 98.6% | 94.8% | 81.7% | 104% | 91.3% | 104% | 101% | 92.5% | 92.5% | 95.7% | 92.7% | > 10 µM | > 10 µM | > 10 µM | > 10 µM | > 10 µM | 0 | 0 | 0 | 0 | 0
COc1ccc2cc3[n+](cc2c1OC)CCc1cc2c(cc1-3)OCO2 [berberine] | 99.8% | 103% | 87.7% | 92.1% | 30.6% | 106% | 96.8% | 103% | 93.7% | 77.2% | 107% | 93% | 95.3% | 107% | 96.1% | 94.3% | 101% | 105% | 101% | 97.3% | 110% | 106% | 97.4% | 86.9% | 82.5% | 2.23 µM | > 10 µM | > 10 µM | > 10 µM | > 10 µM | 5.1 | 1.6 | 0 | 0 | 1.5
Brc1c(NC2=NCCN2)ccc2nccnc12 [brimonidine] | 98.1% | 97.6% | 96.7% | 107% | 105% | 100% | 105% | 99.6% | 96.6% | 106% | 99% | 102% | 97.5% | 100% | 102% | 103% | 98.1% | 88.1% | 97.2% | 103% | 107% | 97.2% | 108% | 90.7% | 103% | > 10 µM | > 10 µM | > 10 µM | > 10 µM | > 10 µM | 0 | 0 | 0 | 0 | 0
